The record followed here is US7115279B2, “Pharmaceutical compositions of cholesteryl ester transfer protein inhibitors” (priority 2000, dated 2006).

Holding throughout (assay type): physicochemical
The nature of data set [1]: in vitro dissolution test, microcentrifuge method, MFDS (Example 5, Drug 1 dispersions). Particulars: model-fasted duodenal solution (MFDS), pH 6.5, maximum concentration of Drug 1 in solution during the 90-minute test, TCmax 100 or 500 μg/mL. The procedure: The spray-dried dispersions of Examples 1 to 4 were evaluated in in vitro dissolution tests using a microcentrifuge method. In this method, 1 mg of the spray-dried dispersions was added to a 1.5-mL microcentrifuge tube. The tube was placed in a 37° C. sonicating bath, and 1 mL of a model-fasted duodenal solution (MFDS) (comprising sodium taurocholate/1-palmitoyl-2-oleoyl-sn-glycero-3-phosphocholine (NaTC-POPC) in phosphate-buffered saline (PBS) at pH 6.5 and 290 mOsm/kg) was added. The samples were quickly mixed using a combination of vortex mixer and sonication for about 90 seconds. The theoretical maximum concentration (“TCmax”) of drug for Examples 1–3 if all the drug dissolved was 100 μg/mL, while for Example 4 the TCmax was 500 μg/mL. The samples were centrifuged at 13,000 G at 37° C. for 1 minute. The resulting supernatant solution was then sampled (100 μL) and diluted with 200 μL methanol and then analyzed by HPLC. The tubes were then mixed on the vortex mixer and allowed to stand undisturbed at 37° C. until the next sample. Samples were collected at 3, 10, 30, 60, and 90 minutes and for Examples 1 and 2 at 1200 minutes.
For Control 1, an in vitro test was performed using the procedure described above, except that 0.18 mg of crystalline Drug 1 was placed in a microcentrifuge tube and mixed with 1.8 mL of MFDS.

Data set [2] can be described thus: in vitro dissolution test, microcentrifuge method, PBS (Example 8, Drug 2 dispersions). Particulars: for Drug 2 Concentration / AUC: PBS pH 6.5, 37° C.; for Drug 2 Concentration: dose about 1000 μg/mL. As for the experimental part:
The spray-dried dispersions of Examples 6 and 7 were evaluated in an in vitro dissolution test using a microcentrifuge method. In this test, the spray-dried dispersion was added to a microcentrifuge tube for a Drug 2 dose of about 1000 μg/mL (7.2 mg for Example 6, 18 mg for Example 7). The tube was placed in a 37° C. sonicating bath, and 1.8 mL phosphate buffered saline (PBS) at pH 6.5 and 290 mOsm/kg was added. The samples were quickly mixed using a vortex mixer for about 60 seconds. The samples were centrifuged at 13,000 G at 37° C. for 1 minute. The resulting supernatant solution was then sampled and diluted 1:6 (by volume) with methanol and then analyzed by high-performance liquid chromatography (HPLC). The contents of the tubes were mixed on the vortex mixer and allowed to stand undisturbed at 37° C. until the next sample was taken. Samples were collected at 4, 10, 20, 40, 90, and 1200 minutes. […]

Data set [3] can be described thus: in vitro dissolution test, receptor solution MFDS (Example 17, Drug 2 dispersions). Particulars: TCmax 400 or 100 μg/mL, read-out: Cmax, 90. The procedure:
The spray-dried dispersions of Examples 6 and 7 were evaluated in an in vitro dissolution test using a microcentrifuge method. In this test, the spray-dried dispersion was added to a microcentrifuge tube for a Drug 2 dose of about 1000 μg/mL (7.2 mg for Example 6, 18 mg for Example 7). The tube was placed in a 37° C. sonicating bath, and 1.8 mL phosphate buffered saline (PBS) at pH 6.5 and 290 mOsm/kg was added. The samples were quickly mixed using a vortex mixer for about 60 seconds. The samples were centrifuged at 13,000 G at 37° C. for 1 minute. The resulting supernatant solution was then sampled and diluted 1:6 (by volume) with methanol and then analyzed by high-performance liquid chromatography (HPLC). The contents of the tubes were mixed on the vortex mixer and allowed to stand undisturbed at 37° C. until the next sample was taken. Samples were collected at 4, 10, 20, 40, 90, and 1200 minutes.
The dispersions of Examples 9–16 were also evaluated in an in vitro dissolution test using receptor solutions of MFDS using the procedures outlined in Example 8.
For Control 3, an in vitro dissolution test was performed using the procedure described above except that 0.72 mg of crystalline Drug 2 was used.

Data set [4] is described as follows: in vitro dissolution test, microcentrifuge method, PBS (Example 29, Drug 3 dispersions). To be noted: phosphate-buffered saline, pH 6.5, TCmax 400 μg/mL, read-out: Cmax, 90. The procedure: The spray-dried dispersions of Examples 21–28 were evaluated in an in vitro dissolution test using a microcentrifuge method. In this method, 7.2 mg of each SDD was added to a 2-mL microcentrifuge tube. The tube was placed in a 37° C. sonicating bath, and 1.8 mL of a phosphate-buffered saline (PBS) solution at pH 6.5 and 290 mOsm/kg was added, resulting in a TCmax of 400 μg/mL. The samples were quickly mixed using a combination of vortex mixer and sonication for about 90 seconds. The samples were centrifuged at 13,000 G at 37° C. for 1 minute. The resulting supernatant solution was then sampled and diluted 1:6 (by volume) with methanol and then analyzed by HPLC. The tubes were then mixed on the vortex mixer and allowed to stand undisturbed at 37° C. until the next sample. Samples were collected at 4, 10, 20, 40, 90 and 1200 minutes.
For Control 5, an in vitro dissolution test was performed using the procedure described above, except that 0.72 mg of non-crystalline Drug 3 was placed in a microcentrifuge tube and mixed with 1.8 mL of PBS.

The nature of data set [5]: in vitro dissolution test, microcentrifuge method, PBS (Example 42, Drugs 4-9 dispersions). To be noted: PBS pH 6.5, 37° C.; for Cmax: phosphate-buffered saline, read-out: Cmax, 90. The procedure: In this method, 15 mg of each SDD was added to a 2-mL microcentrifuge tube. The tube was placed in a 37° C. sonicating bath, and 1.5 mL of a phosphate-buffered saline (PBS) solution at pH 6.5 and 290 mOsm/kg) was added, resulting in a TCmax of 1000 μg/mL. The samples were quickly mixed using a combination of vortex mixer and sonication for about 90 seconds. The samples were centrifuged at 13,000 G at 37° C. for 1 minute. The resulting supernatant solution was then sampled and diluted 1:6 (by volume) with methanol and then analyzed by HPLC. The tubes were then mixed on the vortex mixer and allowed to stand undisturbed at 37° C. until the next sample. Samples were collected at 4, 10, 20, 40, and 90 minutes.
For Controls 6–11, an in vitro dissolution test was performed using the procedure described above, except that 1.5 mg of non-crystalline drug was placed in a microcentrifuge tube and mixed with 1.5 mL of PBS.

Structures are written as SMILES.

A word on the Cmax: it is the highest concentration seen after dosing. As to `COC(=O)N(Cc1cc(C(F)(F)F)cc(C(F)(F)F)c1)[C@@H]1C[C@H](C2CC2)N(C(=O)OC(C)C)c2ccc(C(F)(F)F)cc21` [Control 1, [2R,4R] 4-[(3,5-bis-trifluoromethyl-benzyl)-methoxycarbonyl-amino]-2-cyclopropyl-6-trifluoromethyl-3,4-dihydro-2H-quinoline-1-carboxylic acid isopropyl ester], in data set [1], the Cmax at 100 μg/mL worked out at 900 ng/mL.
By AUC is commonly meant concentration integrated over time. Turning to `CCOC(=O)N1c2ccc(C(F)(F)F)cc2[C@@H](N(Cc2cc(C(F)(F)F)cc(C(F)(F)F)c2)C(=O)OC)C[C@H]1CC` [Control 2, [2R,4S] 4-[(3,5-bis-trifluoromethyl-benzyl)-methoxycarbonyl-amino]-2-ethyl-6-trifluoromethyl-3,4-dihydro-2H-quinoline-1-carboxylic acid ethyl ester], the “Drug 2 Concentration” value in data set [2] (time 0 min) is 0 µg/mL; in data set [2] (time 4 min) it was 6 µg/mL; in data set [2] (time 10 min), below 1 µg/mL; in data set [2] (time 20 min) it was below 1 µg/mL; in data set [2] (time 40 min) it was 3 µg/mL; in data set [2] (time 90 min), below 1 µg/mL. Besides, the “Drug 2 Concentration” value in data set [2] (time 1200 min) was below 1 µg/mL. Also, the AUC in data set [2] (time 0 min) is 0 µg·min/mL; in data set [2] (time 4 min), 12 µg·min/mL; in data set [2] (time 10 min), 30 µg·min/mL; in data set [2] (time 20 min) it was 30 µg·min/mL; in data set [2] (time 40 min) it was 60 µg·min/mL; in data set [2] (time 90 min), 135 µg·min/mL. In data set [2] (time 1200 min), this compound returned an AUC of 135 µg·min/mL. The compound further had an AUC90 in data set [2] (area under the aqueous concentration versus time curve after 90 minutes, PBS) of 135 µg·min/mL. The compound further gave a Cmax at 1000 μg/mL in data set [2] (phosphate buffered saline (PBS), pH 6.5, maximum concentration of Drug 2 in solution during the first 90 minutes, PBS) of 6000 ng/mL.
As to `CCOC(=O)N1c2ccc(C(F)(F)F)cc2[C@@H](N(Cc2cc(C(F)(F)F)cc(C(F)(F)F)c2)C(=O)OC)C[C@H]1CC` [Control 3, [2R,4S] 4-[(3,5-bis-trifluoromethyl-benzyl)-methoxycarbonyl-amino]-2-ethyl-6-trifluoromethyl-3,4-dihydro-2H-quinoline-1-carboxylic acid ethyl ester], in data set [3], the highest concentration (Cmax) is below 1000 ng/mL.
In the case of `CCCOC(=O)N1c2ccc(C(F)(F)F)cc2[C@@H](N(Cc2cc(C(F)(F)F)cc(C(F)(F)F)c2)C(=O)OC)C[C@H]1CC` [Control 5, [2R,4S] 4-[(3,5-bis-trifluoromethyl-benzyl)-methoxycarbonyl-amino]-2-ethyl-6-trifluoromethyl-3,4-dihydro-2H-quinoline-1-carboxylic acid propyl ester], the Cmax in data set [4] is below 100 ng/mL.
Consider `CCOC(=O)N1c2cc(OC)c(OC)cc2[C@@H](N(Cc2cc(C(F)(F)F)cc(C(F)(F)F)c2)C(=O)OC)C[C@H]1C` [Control 6, [2R,4S] 4-[(3,5-bis-trifluoromethyl-benzyl)-methoxycarbonyl-amino]-6,7-dimethoxy-2-methyl-3,4-dihydro-2H-quinoline-1-carboxylic acid ethyl ester], for which the Cmax in data set [5] (TCmax 1000 μg/mL) is below 1000 ng/mL.
Consider `CCOC(=O)N1c2cc(CC)c(CC)cc2[C@@H](N(Cc2cc(C(F)(F)F)cc(C(F)(F)F)c2)C(=O)OC)C[C@H]1C` [Control 7, [2R,4S] 4-[(3,5-bis-trifluoromethyl-benzyl)-methoxycarbonyl-amino]-6,7-diethyl-2-methyl-3,4-dihydro-2H-quinoline-1-carboxylic acid ethyl ester], for which, in data set [5] (TCmax 1000 μg/mL), the Cmax is below 1000 ng/mL.
For the compound `CCOC(=O)N1c2cc3c(cc2[C@@H](N(Cc2cc(C(F)(F)F)cc(C(F)(F)F)c2)C(=O)OC)C[C@H]1C)CCC3` [Control 8, [2R,4S] 4-[(3,5-bis-trifluoromethyl-benzyl)-methoxycarbonyl-amino]-2-methyl-2,3,4,6,7,8-hexahydro-cyclopenta[g]quinoline-1-carboxylic acid ethyl ester], in data set [5] (Time 0 min), the AUC came out at 0 µg·min/mL and the Concentration amounted to 0 ng/mL. Moreover, in data set [5] (TCmax 1000 μg/mL), the Cmax is below 1000 ng/mL.
With `CC[C@@H]1C[C@H](N(Cc2cc(C(F)(F)F)cc(C(F)(F)F)c2)C(C)=O)c2cc(C(F)(F)F)ccc2N1C(=O)OC(C)C` [Control 9, [2R,4S] 4-[acetyl-(3,5-bis-trifluoromethyl-benzyl)-amino]-2-ethyl-6-trifluoromethyl-3,4-dihydro-2H-quinoline-1-carboxylic acid isopropyl ester], the Cmax in data set [5] (TCmax 1000 μg/mL) was below 1000 ng/mL.
Same read-out and setting: in the case of `COC(=O)N(Cc1cc(C(F)(F)F)cc(C(F)(F)F)c1)[C@H]1C[C@@H](C2CC2)N(C(=O)OC(C)C)c2ccc(C(F)(F)F)cc21` [Control 10, [2S,4S] 4-[(3,5-bis-trifluoromethyl-benzyl)-methoxycarbonyl-amino]-2-cyclopropyl-6-trifluoromethyl-3,4-dihydro-2H-quinoline-1-carboxylic acid isopropyl ester] it was below 1000 ng/mL.
With `CC1(C)Cc2nc(C3CCCC3)c([C@@H](F)c3ccc(C(F)(F)F)cc3)c(-c3ccc(F)cc3)c2[C@@H](O)C1` [Control 11, [3S,5S] 2-cyclopentyl-4-(4-fluoro-phenyl)-3-[fluoro-(4-trifluoromethyl-phenyl)-methyl]-7,7-dimethyl-5,6,7,8-tetrahydro-quinolin-5-ol], in data set [5] (TCmax 1000 μg/mL), the “Cmax, 90” value was below 1000 ng/mL.
